Results taken from patent US20070123476A1, “Polyene antibiotic for controlling fungal growth in banana crops” (priority 2004, published 2007).
≈ marks a conversion by molar mass, not a printed value.

Legend:
M. fijensis = assay: Minimal inhibitory concentration on agar plates containing natamycin (agar diffusion method); assay type: cell-based, Mycosphaerella fijiensis; conditions: Pseudocercospora fijiensis; spores grown on agar plates with different natamycin concentrations; no visible growth
Protocol: (§1) The minimal inhibition concentration of these moulds or the minimal effective amount of the antifungal compound was determined using the agar diffusion method, which is well known in the art. Mould spores were grown on agar plates containing different concentrations of natamycin. The concentration of natamycin on which no visible growth could be observed was considered as the minimal inhibitory concentration (MIC) for that particular mould strain.

most fungi = conditions: general background statement; cited from earlier work
[1] = cited from earlier work
Fusarium oxysporum f.sp = assay: Minimal inhibitory concentration on agar plates containing natamycin (agar diffusion method); assay type: cell-based, Fusarium oxysporum f. sp. cubense; conditions: spores grown on agar plates with different natamycin concentrations, no visible growth
Protocol: as §1

## C[C@@H]1C/C=C/C=C/C=C/C=C/[C@H](O[C@@H]2O[C@H](C)[C@@H](O)[C@H](N)[C@@H]2O)C[C@@H]2O[C@](O)(C[C@@H](O)C[C@H]3O[C@@H]3/C=C/C(=O)O1)C[C@H](O)[C@H]2C(=O)O [natamycin]
M. fijensis
  MIC: 3 to 7 µg/mL (≈ 4.51 to 10.5 µM)
Most fungi
  MIC (Minimal Inhibition Concentration) of most fungi: less than 20 ppm
[1]
  solubility in water: 30-50 ppm
Fusarium oxysporum f.sp
  MIC: 3 to 7 µg/mL (≈ 4.51 to 10.5 µM)
